Source: US20130190289A1, “COMPOUNDS AND METHODS FOR THE TREATMENT OR PREVENTION OF FLAVIVIRUS INFECTIONS” (priority 2010, published 2013)
Like-named read-outs stand apart in the source and are kept apart here.

How the values were obtained:
[1] = tested on: HCV replicon (genotype 1b) in Huh7 cell line ET; assay: microbe, parasite or virus in culture; assay type: cell-based, HCV genotype 1b; details: Hepatitis C virus
[2] = [3H]Thymidine incorporation assay (cell toxicity); details: human
[3] = Huh-7, read-out: HCV-Replicon-(Luci-ET) 1b_IC50
[4] = Huh-7, 96 h, read-out: HCV-Replicon (Luci-ET)-1b_IC50

SMILES | IC50 [1, 3] | CC50 at 72 h [2] | IC50 [1, 4]
C[C@@H](C(=O)N1CCOC(C)(C)C1)N(c1cc(C#CC(C)(C)C)sc1C(=O)O)C(=O)[C@H]1CC[C@H](C)CC1 [Compound 50, 5-(3,3-Dimethylbut-1-ynyl)-3-[[(1S)-2-(2,2-dimethylmorpholin-4-yl)-1-methyl-2-oxo-ethyl]-(trans-4-methylcyclohexanecarbonyl)amino]thiophene-2-carboxylic acid] | < 0.1 µM | > 100 µM | –
C[C@@H](C(=O)N(C)C1CCOCC1)N(c1cc(C#CC(C)(C)C)sc1C(=O)O)C(=O)[C@H]1CC[C@H](C)CC1 [Compound 51, 5-(3,3-Dimethylbut-1-ynyl)-3-[(trans-4-methylcyclohexanecarbonyl)-[(1S)-1-methyl-2-[methyl(tetrahydropyran-4-yl)amino]-2-oxo-ethyl]amino]thiophene-2-carboxylic acid] | < 0.1 µM | > 100 µM | –
CN(C(=O)CN(c1cc(C#CC(C)(C)C)sc1C(=O)O)C(=O)[C@H]1CC[C@H](C)CC1)C1CCOCC1 [Compound 43] | < 0.1 µM | > 100 µM | –
C[C@@H](C(=O)N1CC[C@H](O)C1)N(c1cc(C#CC(C)(C)C)sc1C(=O)O)C(=O)[C@H]1CC[C@H](C)CC1 [Compound 29, 5-(3,3-Dimethylbut-1-ynyl)-3-[[(1S)-2-[(3S)-3-hydroxypyrrolidin-1-yl]-1-methyl-2-oxo-ethyl]-(trans-4-methylcyclohexanecarbonyl)amino]thiophene-2-carboxylic acid] | < 0.1 µM | > 100 µM | –
COC1CCCN(C(=O)[C@H](C)N(c2cc(C#CC(C)(C)C)sc2C(=O)O)C(=O)[C@H]2CC[C@H](C)CC2)C1 (stereo partly drawn) [Compound 40, 5-(3,3-Dimethylbut-1-ynyl)-3-[[(1S)-2-(3-methoxy-1-piperidyl)-1-methyl-2-oxo-ethyl]-(trans-4-methylcyclohexanecarbonyl)amino]thiophene-2-carboxylic acid] | < 0.1 µM | > 100 µM | –
C[C@H]1CC[C@H](C(=O)N(CC(=O)N2CCOCC2)c2cc(-c3ccc(Oc4ccccc4)cc3)sc2C(=O)O)CC1 [Compound 151, 3-[(trans-4-methylcyclohexanecarbonyl)-(2-morpholino-2-oxo-ethyl)amino]-5-(4-phenoxyphenyl)thiophene-2-carboxylic acid] | – | 10 to 100 µM | 0.1 to 1 µM
CC[C@@H](C(=O)N1CCOCC1)N(c1cc(-c2ccccc2)sc1C(=O)O)C(=O)[C@H]1CC[C@H](C)CC1 [Compound 126, 3-[(trans-4-methylcyclohexanecarbonyl)-[(1S)-1-(morpholine-4-carbonyl)propyl]amino]-5-phenyl-thiophene-2-carboxylic acid] | – | > 100 µM | 0.1 to 1 µM
CC1CN(C(=O)CN(c2cc(C#CC(C)(C)C)sc2C(=O)O)C(=O)[C@H]2CC[C@H](C)CC2)CCO1 (stereo partly drawn) [Compound 26] | < 0.1 µM | 10 to 100 µM | –
CCOC[C@@H](C(=O)N(C)C)N(c1cc(C#CC(C)(C)C)sc1C(=O)O)C(=O)[C@H]1CC[C@H](C)CC1 [Compound 88, 3-[[(1S)-2-(Dimethylamino)-1-(ethoxymethyl)-2-oxo-ethyl]-(trans-4-methylcyclohexanecarbonyl)amino]-5-(3,3-dimethylbut-1-ynyl)thiophene-2-carboxylic acid] | < 0.1 µM | > 100 µM | –
C[C@@H]1CN(C(=O)[C@H](C)N(c2cc(C#CC(C)(C)C)sc2C(=O)O)C(=O)[C@H]2CC[C@H](C)CC2)C[C@H](C)O1 [Compound 48, 5-(3,3-Dimethylbut-1-ynyl)-3-[[(1S)-2-[(2R,6S)-2,6-dimethylmorpholin-4-yl]-1-methyl-2-oxo-ethyl]-(trans-4-methylcyclohexanecarbonyl)amino]thiophene-2-carboxylic acid] | < 0.1 µM | 10 to 100 µM | –
CN1CC(N(c2cc(C#CC(C)(C)C)sc2C(=O)O)C(=O)[C@H]2CC[C@H](C)CC2)CC1=O (relative stereo) [Compound 107, 5-(3,3-Dimethylbut-1-ynyl)-3-[(trans-4-methylcyclohexanecarbonyl)-(1-methyl-5-oxo-pyrrolidin-3-yl)amino]thiophene-2-carboxylic acid] | < 0.1 µM | > 100 µM | –
CCN1CCCC[C@H](N(C(=O)c2ccc(Cl)cc2Cl)c2cc(C#CC(C)(C)C)sc2C(=O)O)C1=O [Compound 135, (S)-5-(3,3-dimethylbut-1-ynyl)-3-[(2,4-dichlorobenzoyl)-N-(1-ethyl-2-oxoazepan-3-yl)amino]-thiophene-2-carboxylic acid] | – | > 100 µM | < 0.1 µM
C[C@H](CN(c1cc(C#CC(C)(C)C)sc1C(=O)O)C(=O)[C@H]1CC[C@H](C)CC1)C(=O)N1CCOCC1 [Compound 109, 5-(3,3-dimethylbut-1-ynyl)-3-[(trans-4-methylcyclohexanecarbonyl)-[(2R)-2-methyl-3-morpholino-3-oxo-propyl]amino]thiophene-2-carboxylic acid] | < 0.1 µM | > 100 µM | –
CC1CN(C(=O)[C@H](C)N(c2cc(C#CC(C)(C)C)sc2C(=O)O)C(=O)[C@H]2CC[C@H](C)CC2)CCO1 (stereo partly drawn) [Compound 49, 5-(3,3-Dimethylbut-1-ynyl)-3-[(trans-4-methylcyclohexanecarbonyl)-[(1S)-1-methyl-2-(2-methylmorpholin-4-yl)-2-oxo-ethyl]amino]thiophene-2-carboxylic acid] | < 0.1 µM | > 100 µM | –
CO[C@H](C)[C@H](C(=O)N1CCOCC1)N(c1cc(C#CC(C)(C)C)sc1C(=O)O)C(=O)[C@H]1CC[C@H](C)CC1 [Compound 74, 5-(3,3-dimethylbut-1-ynyl)-3-[[(1R,2R)-2-methoxy-1-(morpholine-4-carbonyl)propyl]-(trans-4-methylcyclohexanecarbonyl)amino]thiophene-2-carboxylic acid] | < 0.1 µM | > 100 µM | –
CC[C@@H](C(=O)N1CCCOCC1)N(c1cc(C#CC(C)(C)C)sc1C(=O)O)C(=O)[C@H]1CC[C@H](C)CC1 [Compound 84, 5-(3,3-Dimethylbut-1-ynyl)-3-[(trans-4-methylcyclohexanecarbonyl)-[(1S)-1-(1,4-oxazepane-4-carbonyl)propyl]amino]thiophene-2-carboxylic acid] | < 0.1 µM | 10 to 100 µM | –
CCC#Cc1cc(N(CC(=O)N2CCOCC2)C(=O)[C@H]2CC[C@H](C)CC2)c(C(=O)O)s1 [Compound 132, 5-But-1-ynyl-3-[(trans-4-methylcyclohexanecarbonyl)-(2-morpholino-2-oxo-ethyl)amino]thiophene-2-carboxylic acid] | – | > 100 µM | 0.1 to 1 µM
CNC(=O)CN(c1cc(C#CC(C)(C)C)sc1C(=O)O)C(=O)[C@H]1CC[C@H](C)CC1 [Compound 1, 5-(3,3-dimethylbut-1-ynyl)-3-[[2-(methylamino)-2-oxo-ethyl]-(trans-4-methylcyclohexanecarbonyl)amino]thiophene-2-carboxylic acid] | < 0.1 µM | 10 to 100 µM | –
CC(C)N1CC[C@@H](N(c2cc(C#CC(C)(C)C)sc2C(=O)O)C(=O)[C@H]2CC[C@H](C)CC2)C1=O [Compound 141, 5-(3,3-dimethylbut-1-ynyl)-3-[[(3R)-1-isopropyl-2-oxo-pyrrolidin-3-yl]-(trans-4-methylcyclohexanecarbonyl)amino]thiophene-2-carboxylic acid] | – | > 100 µM | < 0.1 µM
COCCN(C)C(=O)[C@H](C)N(c1cc(C#CC(C)(C)C)sc1C(=O)O)C(=O)[C@H]1CC[C@H](C)CC1 [Compound 38, 5-(3,3-Dimethylbut-1-ynyl)-3-[[(1S)-2-[2-methoxyethyl(methyl)amino]-1-methyl-2-oxo-ethyl]-(trans-4-methylcyclohexanecarbonyl)amino]thiophene-2-carboxylic acid] | < 0.1 µM | > 100 µM | –
C[C@@H](C(=O)N1CCCC(O)C1)N(c1cc(C#CC(C)(C)C)sc1C(=O)O)C(=O)[C@H]1CC[C@H](C)CC1 (stereo partly drawn) [Compound 54, 5-(3,3-Dimethylbut-1-ynyl)-3-[[(1S)-2-(3-hydroxy-1-piperidyl)-1-methyl-2-oxo-ethyl]-(trans-4-methylcyclohexanecarbonyl)amino]thiophene-2-carboxylic acid] | < 0.1 µM | > 100 µM | –
COC1CCN(C(=O)[C@H](C)N(c2cc(C#CC(C)(C)C)sc2C(=O)O)C(=O)[C@H]2CC[C@H](C)CC2)CC1 [Compound 53, 5-(3,3-Dimethylbut-1-ynyl)-3-[[(1S)-2-(4-methoxy-1-piperidyl)-1-methyl-2-oxo-ethyl]-(trans-4-methylcyclohexanecarbonyl)amino]thiophene-2-carboxylic acid] | < 0.1 µM | > 100 µM | –
COCCN1CCC[C@H](N(c2cc(C#CC(C)(C)C)sc2C(=O)O)C(=O)[C@H]2CC[C@H](C)CC2)C1=O [Compound 150, (S)-5-(3,3-Dimethylbut-1-ynyl)-3-((trans)-4-methyl-N-(1-(2-methoxyethyl)-2-oxopiperidin-3-yl)cyclohexanecarboxamido)thiophene-2-carboxylic acid] | – | > 100 µM | < 0.1 µM
COC[C@@H](C(=O)N1CCCC1)N(C(=O)C1CCCCC1)c1cc(C#CC(C)(C)C)sc1C(=O)O [Compound 36, 3-[Cyclohexanecarbonyl-[(1S)-1-(methoxymethyl)-2-oxo-2-pyrrolidin-1-yl-ethyl]amino]-5-(3,3-dimethylbut-1-ynyl)thiophene-2-carboxylic acid] | 0.1 to 1 µM | > 100 µM | –
CC(C(=O)N(C)C)N(c1cc(C#CC(C)(C)C)sc1C(=O)O)C(=O)[C@H]1CC[C@H](C)CC1 (relative stereo) [Compound 7, 5-(3,3-Dimethyl-but-1-ynyl)-3-[(1-dimethylcarbamoyl-ethyl)-(trans-4-methyl-cyclohexanecarbonyl)-amino]-thiophene-2-carboxylic acid] | < 0.1 µM | 10 to 100 µM | –
CC1CCC(C(=O)N(CCC(=O)N2CCOCC2)c2cc(C#CC(C)(C)C)sc2C(=O)O)CC1 (stereo not drawn) [Compound 97] | < 0.1 µM | > 100 µM | –
CC1CCC(C(=O)N(c2cc(C#CC(C)(C)C)sc2C(=O)O)[C@@H]2CCN(C)C2=O)CC1 (single isomer, unassigned) [Compound 92] | < 0.1 µM | > 100 µM | –
